What was measured:
[1] = test system: NMRI mice; assay: Mouse Forced Swim Test (mFST); format: in vivo; settings: compound alone, 0.3, 1, 3, 10 mg/kg s.c., 30 minutes pre-treatment
Description: The Forced Swim Test therefore is considered predictive of a potential antidepressant pharmacological effect.
Female NMRI mice (of 20-25 g) are habituated to the laboratory (a 12 hour light/dark cycle) for at least 16 hours before the experiment.
30 minutes after s.c. injection of either vehicle or drug, the mouse is placed in a glass beaker (d=16 cm; 5000 ml) with water (24° C.) up till 10 cm from the top edge. For the subsequent 6 minutes the duration of immobility defined as swim speed less than 2.5 cm/minute, and forced swim distance defined as distance swum with a speed above 5 cm/minute, is recorded. There are 8 mice in each group.
The activity of the mouse is tracked by the View Point system for the measurement of distance, immobility, and speed.
Time of immobility ±SEM (seconds) and forced swim distance ±SEM (cm) in 15 seconds time intervals are presented and plotted in SigmaPlot. Mean total immobility time and total swim distance in the time interval 60-360 seconds are calculated and presented for each group. The dose showing significant difference from the vehicle treated group is reported as the Minimal Effective Dose (MED s.c. mg/kg).

[2] = test system: NMRI mice; settings: systemic administration; mice in a small water pool; background statement; cited from earlier work

SMILES	melting point [°C]	further results
Clc1cncc(N2CCNCC2)c1.O=C(O)/C=C/C(=O)O	195 to 196	
Ic1ccc(N2CCNCC2)nn1.O=C(O)/C=C/C(=O)O	187 to 190	
O=C(O)/C=C/C(=O)O.c1ccc2c(c1)ncn2-c1ccc(N2CCNCC2)nn1	217	
CN1C2CCC1CN(c1ccccc1)CC2.O=C(O)/C=C/C(=O)O (racemic)	143.9	
Cl.Cl.Clc1ccc(N2CCNCC2)cn1 [Compound 1C3, 1-(6-Chloro-3-pyridyl)-piperazine Dihydrochloric Acid Salt]		forced swimming [1]: did not affect forced swimming
CNCCCN1c2ccccc2CCc2ccccc21 [Desipramine]		forced swim distance [2]: induces an increase in the forced swim distance

From patent US7307087B2, “Treatment of affective disorders by the combined action of a nicotinic receptor agonist and a monoaminergic substance” (Neurosearch A/S, priority 2000, dated 2007)
